{"source": "patent US11938220B2", "about": "“Sustained-release anesthetic compositions and methods of preparation thereof” (TLC Biopharmaceuticals, Inc., priority 2018, dated 2024)", "test_system": "Sprague-Dawley rats after paw incision", "assay": "Anesthetic effect in a paw incision rat model (Von Frey, 50% paw withdrawal threshold)", "assay_type": "in vivo", "details": "intra-plantar injection after paw incision, 1.9 mg ropivacaine articles, 1.33 mg ER Bupivacaine per incision, 0.5 hour after injection", "from_the_text": "FIG. 1A is a graph depicting 50% paw withdrawal threshold by a Von Frey test; wherein an anesthetic composition in accordance with the present disclosure (Ropivacaine composition) is our test article and ropivacaine injectable solution (unformulated ropivacaine) and commercial extended release liposomal bupivacaine (ER Bupivacaine) are used as reference articles. Saline, Ropivacaine composition, Ropivacaine injectable solution, and ER Bupivacaine were intra-plantarly administered after paw incision; the error bars represent the standard error of mean (SEM); and *:P<0.05 when compared to ER Bupivacaine group; BBL=Before surgery baseline; ABL=After surgery baseline.\nFIG. 1B is a graph depicting the percentage of maximum possible effects (% MPE), calculated from the 50% paw withdrawal threshold using the formula % MPE=(Thresholdaftertreatment−ABL)/(BBL−ABL)×100%; wherein the error bars represent the standard error of mean (SEM); *:P<0.05 when compared to ER Bupivacaine group. MPE over 30% is considered effective;\nSprague-Dawley rats were used for evaluating the anesthetic efficacy after paw incision as described in Pain. 1996 March; 64(3):493-501. […]\nBefore surgery baselines (BBL) of 27 rats were measured −1 to −3 days prior to surgery; after surgery baselines (ABL) of 27 rats were measured 30 minutes after surgery. […]"}
{"smiles": "CCCN1CCCC[C@H]1C(=O)Nc1c(C)cccc1C", "note": "[unformulated ropivacaine, ropivacaine]", "values": [{"measurement": "50% paw withdrawal threshold at T=0.5 hour", "result": 11.47, "unit": "g"}]}
